Data from paper PMC5438364, “A broad-spectrum bactericidal lipopeptide with anti-biofilm properties” (Scientific Reports, 2017).
Converted amounts (≈) assume the structure as drawn. Where a SMILES comes first, the peptide text is derived from it. [ ]: non-standard residue; d: D form. The star is where a group is joined. Myristoyl = CCCCCCCCCCCCCC(=O)*; 12Ado = NCCCCCCCCCCCC(=O)O

Legend:
Enterococci = format: cell-based
Procedure: (§1) Staphylococci, Bacilli, Escherichia, Pseudomonas, Acinetobacter, Salmonella and Klebsiella species were grown in Luria Bertani broth (LB; 5 gr/l NaCl, 5 gr/l yeast extract, 10 gr/l tryptone). Enterococci and E. coli ML-35p were grown in Tryptic Soy Broth (TSB). Listeria and Streptococci were grown in Brain Heart Infusion (BHI). All bacteria were grown over-night at 37 °C with shaking. S. mutans 35668 plated on BHI agar for enumeration was grown for 48 hr. S. mutans UA159 was grown in 5% CO2 enriched atmosphere. Fusobacterium and Porphyromonas were grown in Wilkins-Chalgren growth medium and an anaerobic atmosphere.
(§2) Minimal inhibitory concentration (MIC) was determined using the microdilution assay. Mid-log-phase bacteria at 5 × 10^5 CFU/ml were incubated in a 96-well plate with serial two-fold dilutions of the tested compound for 18–24 hr at 37 °C (final volume of 200 µl). O.D. at 620 nm was measured (Synergy HT, BioTek Instruments, Winooski, VT, USA), and the MIC was determined as the lowest concentration for which no increase in O.D. was detected.

Listeria = format: cell-based
Procedure: as §1, §2

Staphylococci = format: cell-based
Procedure: as §1, §2

Streptococci = format: cell-based
Procedure: as §1, §2

Fusobacterium = format: cell-based, Fusobacterium nucleatum; details: 48 h
Source text: (§3) Gram-negative bacteria tested were: ATCC strains Escherichia coli 25922, 43894, Pseudomonas aeruginosa 27853, 9027, Acinetobacter baumannii 19606, A. caloaceticus 31299, Salmonella Typhimurium 14028, Fusobacterium nucleatum 23726, Porphyromonas gingivalis 53977, clinical isolates E. coli 14182, 14384, U-16327, U-16329, P. aeruginosa 1278, Klebsiella pneumoniae 1287, K2–224, C2, A. baumannii 1279, 1280, 1281, F. nucleatum PK 1594, the engineered E. coli ML-35p and the isogenic K-12 pair AG100, AG100a (ΔacrAB). Dental related bacteria (generous gift of Prof. Doron Steinberg and Gilad Bachrach from the Hebrew University of Jerusalem) appear in bold characters.
as §1, with “S. mutans UA159 was grown in 5% CO2 enriched atmosphere. Fusobacterium and Porphyromonas were grown in Wilkins-Chalgren growth medium and an anaerobic atmosphere.” left out
(§4) Minimal inhibitory concentration (MIC) was determined using the microdilution assay. […] O.D. at 620 nm was measured (Synergy HT, BioTek Instruments, Winooski, VT, USA), and the MIC was determined as the lowest concentration for which no increase in O.D. was detected.

Porphyromonas = format: cell-based, Porphyromonas gingivalis; details: 48 h
Source text: as §3
as §1, with “S. mutans UA159 was grown in 5% CO2 enriched atmosphere. Fusobacterium and Porphyromonas were grown in Wilkins-Chalgren growth medium and an anaerobic atmosphere.” left out
as §4

S. mutans = experiment: microbe, parasite or virus in culture; format: cell-based, Streptococcus mutans
Procedure: as §1, §2

E. coli 25922 = format: cell-based, Escherichia coli
Procedure: as §2

E. coli AG100A (ΔacrAB) = format: cell-based, Escherichia coli; details: efflux deletion-mutant AG100A
Source text: as §3, §2

E. coli AG100 = format: cell-based, Escherichia coli; details: wild type AG100
Source text: as §3, §2

E. coli ML-35p = experiment: Bactericidal kinetics (time-kill); format: cell-based, Escherichia coli; details: within 2 hours exposure at ≥MIC; 5 × 10^5 CFU/ml, 37 °C
Procedure: Bactericidal kinetics was assessed by incubating 5 × 10^5 CFU/ml of mid-log-phase bacteria with the OAK for 3 hr at 37 °C with shaking. Aliquots were taken at t = 0, 0.5, 1, 2 and 3 hr, subjected to serial 10-fold dilutions in saline (NaCl = 0.85%) and plated for enumeration after 24–48 hr incubation at 37 °C.

[1] = Self-assembly in solution by light scattering; format: physicochemical; details: for critical aggregation concentration: light scattering at 90°, 400 nm
Procedure: To assess the OAK’s self-assembly in solution, serial two-fold dilutions of the OAK (initial concentration of 200 µM) were prepared in phosphate buffered saline (PBS; 10 mM Na2HPO4, 154 mM NaCl, pH = 7.4) and incubated for 2 hr at room temperature (RT). Light scattering at a 90° angle was measured through a 1 nm slit while holding both excitation and emission at 400 nm (Spectrophotometer Fluorolog-3 FL3–22; Horiba Jobin Yvon, Edison, NJ, USA). To evaluate the disassembly of these aggregates upon bacterial exposure, an OAK solution (200 µM) was incubated (2 hr in PBS, at RT) after which, bacteria were added (10^5 CFU/ml) and the light scattering evolution of these suspensions was monitored as described above.

[2] = tested on: cultivable oral microflora; experiment: Bacterial killing in whole human saliva; format: cell-based; details: within two minutes of exposure, 37 °C
Procedure: Bactericidal kinetics in saliva was assessed as follows. Whole saliva was pooled from two-three healthy volunteers at a time, after obtaining their informed consent. To test for specific activity against S. mutans, saliva was centrifuged for 5 min at 15,000 g and 4 °C, and the supernatant was spiked with 1 × 10^7 CFU/ml of mid-log-phase S. mutans 35668. Otherwise, activity against natural oral microflora was also performed on whole saliva. Saliva was mixed with the tested compound, incubated at 37 °C with shaking, and aliquots were taken at t = 0, 2, 5 and 10 min. Aliquots were subjected to serial 10-fold dilutions in saline and plated on BHI agar for enumeration.

[3] = tested on: S. mutans ATCC 35668 biofilm; experiment: Anti-biofilm activity on pre-formed biofilm; format: cell-based, Streptococcus mutans; details: ≥0.5 mM, within one hour of exposure, inoculum 10^9 CFU/ml
Procedure: Anti-biofilm activity was evaluated against established biofilms in 96-well plates as follows. 200 µl of mid-log-phase S. mutans 35668 at 5 × 10^5 CFU/ml in BHI containing 2% sucrose were placed in each well, and plates were incubated for 24 hr at 37 °C without shaking. Unattached cells were removed by decanting the plates and biofilms were washed three times with milliQ water. Solutions of the tested compounds were placed on the biofilms for up to 3 hr at 37 °C without shaking. Plates were decanted in 0.5 hr intervals and biofilms were washed three times with milliQ water to remove any compound residues. Biofilms were scraped from the bottom of the wells, suspended in BHI and sonicated for 5 min in a sonication bath, subjected to serial 10-fold dilutions in saline and plated on BHI agar for enumeration.

GPB and GNB = experiment: Effect observed at low concentrations, analog series; format: cell-based; details: summary of this and previous studies
Procedure: Table 2 Modulating biophysical properties of a core sequence by conjugating an N-terminal acyl. | column: Effect observed at low concentrations (<3 µM)

[4] = tested on: Gram-positive bacteria (GPB); details: 48 h

CCCCCCCCCCCCCC(=O)N[C@@H](CCCCN)C(=O)N[C@@H](CCCCN)C(=O)NCCCCCCCCCCCC(=O)N[C@@H](CCCCN)C(N)=O [C14KKc12K] (Myristoyl-KK[12Ado]K-NH2)
MIC range (Enterococci): 3.12 to 6.25 µM
MIC range (Listeria): 3.12 µM
MIC range (Staphylococci): 1.56 to 3.12 µM
MIC range (Streptococci): 0.78 to 3.12 µM
MIC range (Fusobacterium): 6.25 µM
MIC range (Porphyromonas): 3.12 µM
MIC (S. mutans): 0.78 µM
MIC (E. coli 25922): 6 µM
MIC (E. coli AG100A (ΔacrAB)): 3 µM
MIC (E. coli AG100): 3 µM
reduction of viability (E. coli ML-35p): > 2 log-unit
disaggregation in presence of bacteria (light scattering) ([1]; OAK 200 µM in PBS, 2 hr RT, then 10^5 CFU/ml S. aureus or E. coli, compared with C12KKc12K): greater tendency to disaggregate in presence of bacteria
critical aggregation concentration ([1]; PBS pH 7.4, 2 hr at RT): 23 ± 3 µM
concentration of sharp divergence of light scattering pattern (higher amplitudes) ([1]; PBS pH 7.4, 2 hr at RT, two-fold dilutions from 200 µM): ~ 20 µM
critical aggregation concentration ([1]; supernatant of centrifuged saliva): 8 ± 1 µM
reduction of viability of cultivable oral microflora [2]: > 99%
killing of the initial inoculum in preformed biofilm [3]: > 99%
Effect observed at low concentrations (<3 µM) (GPB and GNB): High efficacy in membranes disruption leading to a bactericidal mode of action in both GPB & GNB
MIC50 [4]: 3 µM (≈ 2.43 µg/mL)
